Consider one compound from PMC10057977, “Use of In Vivo Imaging and Physiologically-Based Kinetic Modelling to Predict Hepatic Transporter Mediated Drug–Drug Interactions in Rats” (Pharmaceutics, 2023).

Where two headings read alike, the source gives them in different places.

Series [1] is described as follows: Drug plasma concentrations in humans at therapeutic dosing. It counts as in vivo. Particulars: ketoconazole plasma exposure, human.
For the next series, the target named is rMrp2 (Rattus norvegicus, UniProt Q63120). It is filed as in vivo. The note with it: ketoconazole 3 mg/kg iv. Further details: from tissue; host or cells: liver of living male Wistar rats (Charles River Laboratories). The text has this:
The tracer-kinetic model was developed to enable estimation of rate constants of hepatobiliary efflux from DCE-MRI profiles in individual animals. In this approach, the liver was assumed to consist of two compartments, the extracellular space (e) and the hepatocytes (h). Since water exchanges rapidly between those spaces, the change in relaxation rate was a weighted average (Equation (4)). (4) ΔR1(t)=r1,e·ve·ce(t)+r1,h·vh·ch(t)
The proportionality constant, r1,τ [L⋅mmol^−1⋅s^−1] , is the relaxivity of the contrast agent for the compartment τ (extracellular space, e or hepatocytes, h) at the respective field strength, while vτ [mL/mL tissue] is the volume fraction of the compartment τ . Previously measured ex vivo r1,tau values for gadoxetate were used in this work, as per. The underlying assumptions of the PBPK and tracer-kinetic models, relating to physiological volumes and perfusion, are consistent, despite different parameterizations according to the purpose of each model. For example, Vliv,extr in the PBPK model is defined as an absolute volume (units = L; sum of liver plasma and interstitial volumes), while in the tracer-kinetic model, ve is a volume fraction (dimensionless), defined as Vliv,extr/Vliver , where Vliver is the total liver volume. While some analogy can be drawn between CLactive […], and CLbiliary and kbh, the interpretations are distinct. For example, the operating concentrations of the PBPK parameters CLactive […], and CLbiliary are the unbound concentrations of gadoxetate in plasma and hepatocytes, while the tracer-kinetic model is parameterized with respect to the total concentration of gadoxetate.
Since ce(t) is the input to the hepatocytes, and no backflux from hepatocytes to extracellular space is assumed, Equation (5) can be derived. (5) vh·ch(t)=e^−t/Th∗khe·ce(t) where Th is the mean transit time of gadoxetate in the hepatocytes [min] , and * is convolution. The extracellular space is assumed to be in equilibrium with the blood pool and therefore the concentration ce(t) is proportional to the concentration cp(t) in the plasma of the feeding artery, i.e., ce(t) = (1 − E)·cp(t), where E is the extraction fraction of gadoxetate in the liver. Combining this assumption with Equations (4) and (5), and using (1 − E)·khe = E·Fp, with Fp being the apparent plasma flow into the liver [mL/min/mL tissue volume] , gives Equation (6), the operational equation for gadoxetate DCE-MRI in the liver. (6) ΔR1(t)=(1−E)·ve·r1,p·cp(t)+E·Fp·r1,h ·e^−t/Th ∗cp(t)
The rate constants were derived as K^trans = E·Fp, khe = E·Fp/(1 − E), and kbh = vh/Th, with a literature value for vh. The plasma concentrations cp(t) were not reliably measured in small animals due to the small diameter of the main vessels compared to the resolution of the measurement. […] Therefore, the source term cp(t) was derived from a two-compartment pharmacokinetic model for gadoxetate (see Supplementary Material, Section S5), and a step function as input in the blood compartment. The parameters kbh and khe were fitted to the liver data using a model implementation in Python. For each rat considered in these studies, the rate constants K^trans, khe, and kbh were calculated, in both control and inhibitory phases. The rate constants of the control and inhibitory phases were compared via calculation of simple (unstandardized) effect sizes (i.e., simple effect size = μcontrol − μtreatment, where μ is the mean average of all subjects) at the 95% confidence level. Statistical significance was assessed through a two-sided paired t-test, with p < 0.05 considered significant.

Another series has as its system MRP2. Particulars: in vitro; bracket not explained in the table; ref 30,43-55 and in-house data from Merck & Co.; cited from earlier work.
Details of series [2]: method as in supplement [28]. Particulars: rat; 30 min after 3 mg/kg ketoconazole IV; ref supplement [28]; cited from earlier work.
In the next series the test system is OATP1B3. Further details: method as in earlier work. The note with it: in vitro; ref 30,43-55 and in-house data from Merck & Co.; cited from earlier work.
For another series, the system named is OATP1B1. Further details: method as in earlier work. Particulars: in vitro, bracket not explained in the table, ref 30,43-55 and in-house data from Merck & Co., cited from earlier work.
Another series deals with NTCP. On the set-up: method as in earlier work. Particulars: in vitro; ref 30,43-55 and in-house data from Merck & Co.; cited from earlier work.
The conditions of series [3]: cited from earlier work.

Sequence of rMrp2 (Q63120 whole entry): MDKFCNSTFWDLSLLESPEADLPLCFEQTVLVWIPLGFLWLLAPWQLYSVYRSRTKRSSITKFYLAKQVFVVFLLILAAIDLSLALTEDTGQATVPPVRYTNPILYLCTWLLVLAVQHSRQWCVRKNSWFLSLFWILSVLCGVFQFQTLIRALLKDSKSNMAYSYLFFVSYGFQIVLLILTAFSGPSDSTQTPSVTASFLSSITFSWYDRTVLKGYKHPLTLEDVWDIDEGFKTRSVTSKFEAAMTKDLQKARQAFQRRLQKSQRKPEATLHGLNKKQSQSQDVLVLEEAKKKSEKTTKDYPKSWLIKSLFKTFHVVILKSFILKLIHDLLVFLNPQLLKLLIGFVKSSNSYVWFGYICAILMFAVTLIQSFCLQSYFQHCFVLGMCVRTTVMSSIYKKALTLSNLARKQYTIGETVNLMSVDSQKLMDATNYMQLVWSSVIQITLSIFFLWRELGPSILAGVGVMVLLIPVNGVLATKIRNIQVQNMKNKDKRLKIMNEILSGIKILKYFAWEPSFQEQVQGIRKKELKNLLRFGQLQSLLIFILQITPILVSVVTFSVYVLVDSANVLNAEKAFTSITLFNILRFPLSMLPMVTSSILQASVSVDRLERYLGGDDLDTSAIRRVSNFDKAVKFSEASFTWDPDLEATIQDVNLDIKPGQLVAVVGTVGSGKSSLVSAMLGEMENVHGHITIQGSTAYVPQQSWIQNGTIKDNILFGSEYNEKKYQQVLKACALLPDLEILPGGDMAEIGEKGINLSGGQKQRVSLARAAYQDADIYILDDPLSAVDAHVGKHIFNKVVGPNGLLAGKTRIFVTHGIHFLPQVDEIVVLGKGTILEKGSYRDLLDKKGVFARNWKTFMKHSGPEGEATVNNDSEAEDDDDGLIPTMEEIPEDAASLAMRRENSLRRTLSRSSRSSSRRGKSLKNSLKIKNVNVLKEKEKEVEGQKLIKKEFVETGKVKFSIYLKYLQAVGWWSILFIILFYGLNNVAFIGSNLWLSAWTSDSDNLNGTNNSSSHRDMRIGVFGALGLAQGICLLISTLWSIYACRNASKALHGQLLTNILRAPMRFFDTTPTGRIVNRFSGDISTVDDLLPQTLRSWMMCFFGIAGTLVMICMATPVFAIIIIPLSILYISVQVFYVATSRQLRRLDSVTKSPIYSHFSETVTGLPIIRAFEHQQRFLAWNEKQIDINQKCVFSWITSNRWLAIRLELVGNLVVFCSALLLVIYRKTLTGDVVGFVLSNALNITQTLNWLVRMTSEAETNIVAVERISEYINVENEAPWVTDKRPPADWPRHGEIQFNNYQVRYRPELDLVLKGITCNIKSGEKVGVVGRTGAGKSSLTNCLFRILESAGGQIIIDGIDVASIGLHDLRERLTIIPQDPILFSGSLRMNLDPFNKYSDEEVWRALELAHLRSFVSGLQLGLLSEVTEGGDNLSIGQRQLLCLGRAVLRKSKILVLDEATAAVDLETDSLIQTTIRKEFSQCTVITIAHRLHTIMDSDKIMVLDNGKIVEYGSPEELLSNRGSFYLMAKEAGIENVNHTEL

The term IC50 denotes the concentration that gives 50% inhibition. For orientation: Ki means the equilibrium dissociation constant of an inhibitor or competing ligand from its target. Usually Cmax stands for the highest concentration seen after dosing. As to `CC(=O)N1CCN(c2ccc(OCC3COC(Cn4ccnc4)(c4ccc(Cl)cc4Cl)O3)cc2)CC1` (stereo not shown) [Ketoconazole], the “unbound Cmax” value in series [1] is given as ~ 0.07 µM. For the same compound, the “Simple Effect Size (95% CI) kbh” value on rMrp2 (gadoxetate biliary efflux, control − treatment, positive = decrease, site D) is listed as 0.02 (−0.02, 0.06) mL/min/mL liver. For the same compound, the “change in gadoxetate kbh vs control” value on rMrp2 (rat, p = 0.39) is given as “no significant changes”. The IC50 in the series with MRP2 is more than 20 µM; in the series on OATP1B3 it was 3.9 µM; in the series with OATP1B1 it was 15.4 µM; in the series with OATP1B1 (listed as ketoconazole), more than 2 µM; with NTCP, 202 µM. In addition, the plasma concentration in series [2] is listed as 4 µM. Besides, in the series with OATP1B1, the inhibition constant (Ki) was 50.7 µM. The Cmax in series [3] (human plasma, daily dose 200 mg (ketoconazole), read-out: Cmax (µM) [Daily Dose]) was 6.6 µM; in series [3] (human, ref supplement [29], read-out: clinical Cmax) it was 7 µM. Moreover, in series [3] (human, ref supplement [29]), the “clinical Ctrough” value is given as 0.2 µM.
